Our source for the TGI values is PubChem BioAssay (NCI).

Among the test systems are UACC-257 melanoma; SNB-75 CNS; COLO 205 colon; MDA-N; MOLT-4 leukemia; M14 melanoma; MDA-MB-435; HT29 colon; MALME-3M melanoma; NCI-H23 lung; U251 CNS; K-562 leukemia; HOP-92 NSCLC; UACC-62 melanoma; ACHN renal; SR leukemia; HOP-62 NSCLC; OVCAR-3 ovarian; LOX IMVI melanoma.
Test in all cases: DTP human tumour cell line panel, 48 h

Molecules are shown by their SMILES.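 How tested: cells in 96-well plates exposed to compound for 48 hours at five concentrations. The concentration for full growth arrest is given as TGI.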 Where only a bound is given, the exact number is not on record here.

A word on the TGI: it is the concentration giving total growth inhibition. A lower TGI goes with more potent growth arrest.

As to `O=C1c2cccnc2S(=O)N1Cc1ccccc1` (stereo not drawn), the TGI in the experiment with UACC-257 melanoma, in the experiment with SNB-75 CNS, in the experiment on COLO 205 colon, with MDA-N, with MOLT-4 leukemia and with M14 melanoma was more than 100 µM in each case. Also, the TGI in the experiment on MDA-MB-435, in the experiment on HT29 colon, with MALME-3M melanoma, with NCI-H23 lung, with U251 CNS and in the experiment on K-562 leukemia was more than 100 µM in each case. Besides, the TGI in the experiment on HOP-92 NSCLC, in the experiment on UACC-62 melanoma, in the experiment with ACHN renal and with SR leukemia was more than 100 µM throughout.

In the case of `COc1ccccc1C(C1=C(O)COC1=O)c1cc2c(cc1OC(C)=O)OCO2` (stereo not drawn), the TGI with UACC-257 melanoma, in the experiment with SNB-75 CNS, in the experiment with HOP-62 NSCLC, with COLO 205 colon, in the experiment on MDA-N and in the experiment with MOLT-4 leukemia was more than 100 µM each time. Besides, the TGI in the experiment with M14 melanoma, with MDA-MB-435, in the experiment with OVCAR-3 ovarian, with HT29 colon, with MALME-3M melanoma and with NCI-H23 lung was more than 100 µM in each case. In addition, the TGI in the experiment with U251 CNS, with K-562 leukemia, in the experiment on UACC-62 melanoma, with LOX IMVI melanoma, in the experiment with ACHN renal and with SR leukemia was more than 100 µM throughout.

With `CC(NC(=O)C(N)Cc1ccc(O)cn1)C(=O)O` (stereo not drawn), the TGI with UACC-257 melanoma, in the experiment on HOP-62 NSCLC, with COLO 205 colon, in the experiment with MDA-N, with MOLT-4 leukemia and in the experiment on MDA-MB-435 was more than 100 µM each time. Further, the TGI with OVCAR-3 ovarian, with HT29 colon, with MALME-3M melanoma, with NCI-H23 lung, in the experiment with U251 CNS and with K-562 leukemia was more than 100 µM each time. The TGI with HOP-92 NSCLC, in the experiment with LOX IMVI melanoma, with ACHN renal and in the experiment on SR leukemia was more than 100 µM throughout.

Turning to `CN(C)CCn1c(=O)c2ccc3c4c(nn3CCN(C)C)c3cc(N)ccc3n(c1=O)c24`, the TGI was 0.433 µM with UACC-257 melanoma; 0.0971 µM with SNB-75 CNS; 0.201 µM in the experiment on HOP-62 NSCLC; 0.199 µM in the experiment on COLO 205 colon; 0.0752 µM in the experiment with MDA-N; more than 100 µM in the experiment on MOLT-4 leukemia. The TGI in the experiment with M14 melanoma turned out to be 0.18 µM; with MDA-MB-435 it was 0.0654 µM; in the experiment with OVCAR-3 ovarian, 0.164 µM; in the experiment on MALME-3M melanoma, 0.257 µM; in the experiment with NCI-H23 lung it was 0.021 µM; in the experiment with U251 CNS it was 3.39 µM. The TGI in the experiment with K-562 leukemia was 16.7 µM; with UACC-62 melanoma it was 0.281 µM; in the experiment with LOX IMVI melanoma, 0.127 µM; with ACHN renal, 0.428 µM; in the experiment with SR leukemia, more than 42.5 µM.

In the case of `CS(=O)(=O)c1nc(-c2cc3c(c(S(C)(=O)=O)n2)CCCC3)cc2c1CCCC2`, the TGI with UACC-257 melanoma was more than 100 µM; with SNB-75 CNS, 25.3 µM; in the experiment with HOP-62 NSCLC, more than 57.7 µM; in the experiment with COLO 205 colon, more than 100 µM; in the experiment on MDA-N, more than 100 µM; with MOLT-4 leukemia, more than 100 µM. The TGI in the experiment on M14 melanoma, in the experiment with MDA-MB-435, with OVCAR-3 ovarian, in the experiment with HT29 colon, with MALME-3M melanoma and with NCI-H23 lung was more than 100 µM throughout. Further, the TGI in the experiment with U251 CNS is more than 100 µM; in the experiment with K-562 leukemia it was more than 100 µM; in the experiment with UACC-62 melanoma, more than 62.3 µM; with LOX IMVI melanoma, more than 100 µM; in the experiment with ACHN renal, more than 100 µM; with SR leukemia, more than 100 µM.

Turning to `COc1ccc(CNc2nc3cc(C(F)(F)F)ccc3nc2C(=O)O)cc1OC`, the TGI with UACC-257 melanoma was more than 100 µM; in the experiment with SNB-75 CNS it was more than 100 µM; in the experiment on HOP-62 NSCLC it was 66.1 µM; with COLO 205 colon, 57.7 µM; in the experiment with MDA-N it was more than 100 µM; with MOLT-4 leukemia, 55.7 µM. For the same compound, the TGI is more than 100 µM in the experiment with M14 melanoma; 80.2 µM with MDA-MB-435; 58.1 µM in the experiment on OVCAR-3 ovarian; more than 100 µM in the experiment on HT29 colon; more than 100 µM with NCI-H23 lung; 73.5 µM with U251 CNS. The TGI was 74.7 µM with K-562 leukemia; more than 100 µM in the experiment with HOP-92 NSCLC; 45.6 µM with UACC-62 melanoma; more than 100 µM with LOX IMVI melanoma; more than 100 µM in the experiment on ACHN renal; 63.8 µM in the experiment with SR leukemia.

As to `CN(c1ccccc1)S(=O)(=O)c1ccccc1[N+](=O)[O-]`, the TGI in the experiment with UACC-257 melanoma, in the experiment with SNB-75 CNS, in the experiment on HOP-62 NSCLC, in the experiment with COLO 205 colon, in the experiment on MDA-N and in the experiment with MOLT-4 leukemia was more than 100 µM throughout. Further, the TGI with M14 melanoma, in the experiment with MDA-MB-435, in the experiment on OVCAR-3 ovarian, in the experiment with HT29 colon, in the experiment on MALME-3M melanoma and in the experiment with NCI-H23 lung was more than 100 µM each time. Moreover, the TGI with U251 CNS, with K-562 leukemia, in the experiment with UACC-62 melanoma, in the experiment on LOX IMVI melanoma, with ACHN renal and in the experiment with SR leukemia was more than 100 µM in each case.

As for `Nc1ncnc2c1ncn2C1C=CC(CP(=O)(O)O)C1` (stereo not drawn), the TGI in the experiment on UACC-257 melanoma, in the experiment on SNB-75 CNS, with HOP-62 NSCLC, with COLO 205 colon, in the experiment with MDA-N and with MOLT-4 leukemia was more than 100 µM throughout. Moreover, the total growth inhibition concentration (TGI) in the experiment with M14 melanoma, in the experiment on MDA-MB-435, with OVCAR-3 ovarian, with HT29 colon, in the experiment on MALME-3M melanoma and in the experiment on NCI-H23 lung was more than 100 µM throughout. Besides, the TGI with U251 CNS, in the experiment with UACC-62 melanoma, in the experiment on LOX IMVI melanoma, in the experiment with ACHN renal and with SR leukemia was more than 100 µM each time.
